{"source": "paper PMC11678162", "about": "(Pharmaceutics, 2024)", "key": {"serum": {"assay": "serum", "details": "cited from earlier work"}, "[1]": {"test_system": "human peripheral blood mononuclear cells (PBMC)", "assay": "Cytotoxicity, resazurin assay", "type": "cell-based", "details": "RPMI-1640 + 10% FBS, 24 h of incubation", "procedure": "The cytotoxic effect of the peptides was tested on human peripheral blood mononuclear cells (PBMC) using the resazurin assay. To perform the analysis, double serial dilutions of the studied peptides were performed in RPMI-1640 nutrient medium supplemented with 10% FBS in sterile 96-well flat-bottom polystyrene microplates (Nest, Wuxi, Jiangsu, China). Next, an equal volume of RPMI medium containing a suspension of freshly isolated PBMC was added to the peptide solution to a total volume of 100 μL and a cell concentration of 5 × 10^4 per well. The plates were incubated for 20 h in a CO2 incubator (5% CO2, 37 °C) and then 5 µL of resazurin solution was added at a concentration of 0.1 mg/mL, after which the incubation was continued for 4 h. The fluorescence of the formed resorufin was measured using an AF2200 microplate reader (Eppendorf, Germany) using the following channel: λExc = 535 nm; λem = 595 nm. The fluorescence signal in the wells containing cells cultured without peptides was taken as a 100% cell viability. Wells containing no cells were used as a negative control. Experimental data were obtained in two independent experiments performed in triplicate."}, "[2]": {"assay": "25% fresh human serum in PBS (pH 7.4)", "details": "37 °C, up to 24 h"}, "[3]": {"test_system": "freshly isolated human erythrocytes (hRBCs)", "assay": "Hemolysis (hemoglobin release assay)", "type": "cell-based", "details": "4% hRBCs, 1.5 h of incubation", "procedure": "Hemolytic activity was determined using freshly isolated human erythrocytes (hRBCs) according to a previously published method. Isotonic phosphate buffer (PBS) and 0.1% Triton X-100 were used as controls for the absence of lysis and complete disintegration of hRBCs, respectively."}, "Stability in serum": {"assay": "Stability in serum", "type": "in vitro ADME, human", "details": "37 °C", "procedure": "The serum stability of DsGom was determined in 25% fresh human serum in PBS (pH 7.4), as described previously. Briefly, 20 μL of aqueous peptide stock solution (5 mg/mL) was added to 480 μL of serum solution and incubated for 0, 2, 8, and 24 h at 37 °C. After incubation, serum proteins were selectively precipitated from the mixture by adding 10% TFA in the presence of 3.75 M of urea. Subsequently, the samples were stored at 0 °C for 30 min and centrifuged at 30,000× g for 10 min. Equal volumes of supernatants after serum protein precipitation were analyzed by analytical HPLC (Symmetry 300 C18 column, Waters, Milford, MA, USA) and MALDI-TOF MS. The amount of the intact peptide was estimated from the corresponding peak area on the HPLC chromatogram. For each peptide, two independent experiments were performed in triplicate. The comparison of the results and statistical processing were performed using GraphPad Prism 6.0 (GraphPad Software, Boston, MA, USA)."}}, "note": "Bridge positions count the residues as written; N and C are the ends. Square brackets hold non-standard residues; d marks the D form. Peptide text beside a SMILES is read from it. pGlu = O=C1CC[C@@H](C(=O)O)N1"}
{"molecule": "ZCRRLCYKQRCVTYCRGR", "values": [{"measurement": "not cleaved", "setting": "serum", "result": "quite stable in the presence of serum enzymes"}]}
{"molecule": "CC(C)[C@@H]1NC(=O)[C@@H]2CSSC[C@H](NC(=O)[C@H](C(C)C)NC(=O)[C@H](CCCNC(=N)N)NC(=O)[C@H](CCCNC(=N)N)NC(=O)[C@@H](NC(=O)[C@@H](N)CCCNC(=N)N)CSSC[C@@H](C(=O)O)NC(=O)[C@H](Cc3ccc(O)cc3)NC(=O)[C@H](CCC(N)=O)NC1=O)C(=O)N[C@@H](Cc1ccc(O)cc1)C(=O)N[C@@H](CCCCN)C(=O)N[C@@H](CCCCN)C(=O)N[C@@H](CCCNC(=N)N)C(=O)N2", "note": "[DS7] (H-RCRRVCYKKRCVQYC-OH; disulfide 2-15, 6-11)", "values": [{"measurement": "cytotoxic effects on PBMC (in words)", "setting": "[1]", "result": "significantly enhanced cytotoxic effects on PBMC"}]}
{"molecule": "RCHRVCYHKHCVQYC", "values": [{"measurement": "cleaved bond", "setting": "[2]", "result": "Arg1-C2, minor, 8 h"}]}
{"molecule": "CC(C)[C@@H]1NC(=O)[C@@H]2CSSC[C@H](NC(=O)[C@H](C(C)C)NC(=O)[C@H](CCCNC(=N)N)NC(=O)[C@H](CCCNC(=N)N)NC(=O)[C@@H](NC(=O)[C@@H](N)CCCNC(=N)N)CSSC[C@@H](C(=O)O)NC(=O)[C@H](Cc3ccc(O)cc3)NC(=O)[C@H](CCC(N)=O)NC1=O)C(=O)N[C@@H](Cc1ccc(O)cc1)C(=O)N[C@@H](CCCCN)C(=O)N[C@@H](CCCCN)C(=O)N[C@@H](Cc1c[nH]cn1)C(=O)N2", "note": "[DS5] (H-RCRRVCYKKHCVQYC-OH; disulfide 2-15, 6-11)", "values": [{"measurement": "cytotoxic effects on PBMC (in words)", "setting": "[1]", "result": "significantly enhanced cytotoxic effects on PBMC"}]}
{"molecule": "CC(C)C[C@@H]1NC(=O)[C@H](CCCNC(=N)N)NC(=O)[C@H](CCCNC(=N)N)NC(=O)[C@@H](NC(=O)[C@@H]2CCC(=O)N2)CSSC[C@@H](C(=O)N[C@@H](CO)C(=O)NCC(=O)N[C@@H](CCCNC(=N)N)C(=O)O)NC(=O)[C@H](Cc2ccc(O)cc2)NC(=O)[C@H]([C@@H](C)O)NC(=O)[C@H](CC(C)C)NC(=O)[C@@H]2CSSC[C@H](NC1=O)C(=O)N[C@@H](Cc1ccccc1)C(=O)N[C@@H](CCCNC(=N)N)C(=O)N[C@@H](CC(N)=O)C(=O)N[C@@H](CCCNC(=N)N)C(=O)N2", "note": "[Gom-2] ([pGlu]CRRLCFRNRCLTYCSGR-OH; disulfide 2-15, 6-11)", "values": [{"measurement": "hemolytic activity (in words)", "setting": "[3]; compared to gomesin", "result": "significantly higher grade of hemolytic activity"}]}
{"molecule": "CC(C)[C@@H]1NC(=O)[C@@H]2CSSC[C@H](NC(=O)[C@H](C(C)C)NC(=O)[C@H](CCCNC(=N)N)NC(=O)[C@H](Cc3c[nH]cn3)NC(=O)[C@@H](NC(=O)[C@@H](N)CCCNC(=N)N)CSSC[C@@H](C(=O)O)NC(=O)[C@H](Cc3ccc(O)cc3)NC(=O)[C@H](CCC(N)=O)NC1=O)C(=O)N[C@@H](Cc1ccc(O)cc1)C(=O)N[C@@H](Cc1c[nH]cn1)C(=O)N[C@@H](CCCCN)C(=O)N[C@@H](Cc1c[nH]cn1)C(=O)N2", "note": "[DsGom] (H-RCHRVCYHKHCVQYC-OH; disulfide 2-15, 6-11)", "values": [{"measurement": "grade of hemolysis", "setting": "[3]; 128 µM peptide, 0.1% Triton X-100 = complete lysis, two independent experiments", "result": "~ 1%"}, {"measurement": "remaining at 24 h, 0.2 mg/mL", "setting": "Stability in serum; 25% fresh human serum in PBS (pH 7.4), 20 μL of 5 mg/mL stock in 480 μL, TFA/urea precipitation, HPLC peak area (0 h = 100%), two independent experiments in triplicate, read-out: initial amount of peptide remaining intact", "result": "≥ 90", "unit": "%"}, {"measurement": "percentage of the form without the N-terminal arginine residue in the main peak", "setting": "Stability in serum; 25% human serum in PBS, 24 h, MALDI MS of the HPLC fraction", "result": "< 10", "unit": "%"}]}
